The results in this text go back to ChEMBL document CHEMBL2203035, “Synthesis and docking studies of novel antitumor benzimidazoles” (Bioorg Med Chem, 2012).

Assay [1] concerns MCF7. Kind of assay: Downregulation of uPA protein expression in human MCF7 cell extract at 0.125 uM after 48 hrs by ELISA (reference value: 1 1.4000 +/- 1.40 ng/ml). It counts as functional.
Assay [2] has as its system Raji. Kind of assay: Inhibition of tumor promotion in human Raji cells assessed as TPA-induced Epstein-Barr virus early antigen activation at 1000 mol ratio/TPA after 48 hrs by indirect immunofluorescence analysis relative to TPA alone. The format is functional. Set-up: scale not given: the % may be the effect or the level left.
Assay [3] deals with MCF7. Kind of assay: Downregulation of uPA protein expression in human MCF7 cell extract at 0.0625 uM after 48 hrs by ELISA. It counts as functional.
For assay [4], the system named is MCF7. Kind of assay: Downregulation of uPA protein expression in human MCF7 cell extract at 0.25 uM after 48 hrs by ELISA. The format is functional. On the technique in general: ELISA stands for enzyme-linked immunosorbent assay.
The test system of assay [5] is A549. Kind of assay: Downregulation of uPA protein expression in human A549 cell extract at 12 uM after 48 hrs by ELISA (reference value: 11.00 +/-1.60 ng/ml). It counts as functional.
Assay [6] deals with A549. Kind of assay: Downregulation of uPA protein expression in human A549 cell extract at 3 uM after 48 hrs by ELISA (reference value: 11.00 +/-1.60 ng/ml). It counts as functional.
Assay [7] deals with Raji. Kind of assay: Inhibition of tumor promotion in human Raji cells assessed as TPA-induced Epstein-Barr virus early antigen activation at 500 mol ratio/TPA after 48 hrs by indirect immunofluorescence analysis relative to TPA alone. It counts as functional. Set-up: scale not given: the % may be the effect or the level left.
Assay [8] relates to MCF7. Kind of assay: Downregulation of uPA protein expression in human MCF7 cell extract at 0.50 uM after 48 hrs by ELISA (reference value: 1 1.4000 +/- 1.40 ng/ml). It counts as functional.
In assay [9] the test system is MCF7. Kind of assay: Downregulation of uPA protein expression in human MCF7 cell extract at 0.125 uM after 48 hrs by ELISA. The format is functional.
Assay [10] has as its system MCF7. Kind of assay: cells. As to conditions: Homo sapiens, MCF7, 48 h.
Description: Cytotoxicity against human MCF7 cells after 48 hrs by sulforhodamine B assay
The subject of assay [11] is MCF7. Kind of assay: Downregulation of uPA protein expression in human MCF7 cell extract at 0.25 uM after 48 hrs by ELISA (reference value: 1 1.4000 +/- 1.40 ng/ml). It counts as functional.
Assay [12] concerns the target Urokinase plasminogen activator surface receptor (Homo sapiens, UniProt Q03405). Kind of assay: Binding affinity to uPAR.
Assay [13] has as its system Raji. Kind of assay: Inhibition of tumor promotion in human Raji cells assessed as TPA-induced Epstein-Barr virus early antigen activation at 100 mol ratio/TPA after 48 hrs by indirect immunofluorescence analysis relative to TPA alone. It counts as functional. Set-up: scale not given: the % may be the effect or the level left.
The test system of assay [14] is MCF7. Kind of assay: Downregulation of uPA protein expression in human MCF7 cell extract at 0.50 uM after 48 hrs by ELISA. The format is functional.
Assay [15] has as its system MCF7. Kind of assay: Downregulation of uPA protein expression in human MCF7 cell extract at 0.0625 ug/well after 48 hrs by ELISA (reference value: 1 1.4000 +/- 1.40 ng/ml).
Assay [16] concerns Raji. Kind of assay: Inhibition of tumor promotion in human Raji cells assessed as TPA-induced Epstein-Barr virus early antigen activation at 10 mol ratio/TPA after 48 hrs by indirect immunofluorescence analysis relative to TPA alone. It counts as functional. Set-up: scale not given: the % may be the effect or the level left.
For assay [17], the system named is A549. Kind of assay: Downregulation of uPA protein expression in human A549 cell extract at 1.5 uM after 48 hrs by ELISA (reference value: 11.00 +/-1.60 ng/ml). The format is functional.
In assay [18] the test system is A549. Kind of assay: Downregulation of uPA protein expression in human A549 cell extract at 6 uM after 48 hrs by ELISA (reference value: 11.00 +/-1.60 ng/ml). The format is functional.
For assay [19], the system named is A549. Kind of assay: Cytotoxicity against human A549 cells after 72 hrs by alamar blue assay. The format is functional, cell-based. As to conditions: A549, 72 h. For orientation: Resazurin is reduced to fluorescent resorufin, in cell work by metabolically active cells.
Assay [20] concerns A549. Kind of assay: Downregulation of uPA protein expression in human A549 cell extract at 3.40 uM after 48 hrs by ELISA (reference value: 11.0000 +/-1.60 ng/ml). It counts as functional.
In assay [21] the test system is A549. Kind of assay: Downregulation of uPA protein expression in human A549 cell extract at 1.70 uM after 48 hrs by ELISA. It counts as functional.
Assay [22] has as its system MCF7. Kind of assay: Downregulation of uPA protein expression in human MCF7 cell extract at 0.67 uM after 48 hrs by ELISA (reference value: 1 1.4000 +/- 1.40 ng/ml). The format is functional.
The test system of assay [23] is MCF7. Kind of assay: Downregulation of uPA protein expression in human MCF7 cell extract at 0.335 uM after 48 hrs by ELISA. It counts as functional.
Assay [24] relates to A549. Kind of assay: Downregulation of uPA protein expression in human A549 cell extract at 1.70 uM after 48 hrs by ELISA (reference value: 11.0000 +/-1.60 ng/ml). It counts as functional.
For assay [25], the system named is A549. Kind of assay: Downregulation of uPA protein expression in human A549 cell extract at 0.85 uM after 48 hrs by ELISA (reference value: 11.0000 +/-1.60 ng/ml). The format is functional.
The subject of assay [26] is MCF7. Kind of assay: Downregulation of uPA protein expression in human MCF7 cell extract at 0.167 ug/well after 48 hrs by ELISA (reference value: 1 1.4000 +/- 1.40 ng/ml).
Assay [27] relates to MCF7. Kind of assay: Downregulation of uPA protein expression in human MCF7 cell extract at 0.167 uM after 48 hrs by ELISA. The format is functional.
Assay [28] relates to MCF7. Kind of assay: Downregulation of uPA protein expression in human MCF7 cell extract at 0.084 uM after 48 hrs by ELISA. It counts as functional.
The test system of assay [29] is A549. Kind of assay: Downregulation of uPA protein expression in human A549 cell extract at 0.425 uM after 48 hrs by ELISA (reference value: 11.0000 +/-1.60 ng/ml). It counts as functional.
Assay [30] concerns A549. Kind of assay: Downregulation of uPA protein expression in human A549 cell extract at 0.85 uM after 48 hrs by ELISA. The format is functional.
The subject of assay [31] is MCF7. Kind of assay: Downregulation of uPA protein expression in human MCF7 cell extract at 0.67 uM after 48 hrs by ELISA. It counts as functional.
Assay [32] deals with MCF7. Kind of assay: Downregulation of uPA protein expression in human MCF7 cell extract at 0.335 ug/well after 48 hrs by ELISA (reference value: 1 1.4000 +/- 1.40 ng/ml).
For assay [33], the system named is A549. Kind of assay: Downregulation of uPA protein expression in human A549 cell extract at 0.425 uM after 48 hrs by ELISA. The format is functional.
Assay [34] concerns MCF7. Kind of assay: Downregulation of uPA protein expression in human MCF7 cell extract at 0.084 ug/well after 48 hrs by ELISA (reference value: 1 1.4000 +/- 1.40 ng/ml).
Assay [35] deals with A549. Kind of assay: Downregulation of uPA protein expression in human A549 cell extract at 3.40 uM after 48 hrs by ELISA. It counts as functional.

Chain of Urokinase plasminogen activator surface receptor (Q03405 whole entry): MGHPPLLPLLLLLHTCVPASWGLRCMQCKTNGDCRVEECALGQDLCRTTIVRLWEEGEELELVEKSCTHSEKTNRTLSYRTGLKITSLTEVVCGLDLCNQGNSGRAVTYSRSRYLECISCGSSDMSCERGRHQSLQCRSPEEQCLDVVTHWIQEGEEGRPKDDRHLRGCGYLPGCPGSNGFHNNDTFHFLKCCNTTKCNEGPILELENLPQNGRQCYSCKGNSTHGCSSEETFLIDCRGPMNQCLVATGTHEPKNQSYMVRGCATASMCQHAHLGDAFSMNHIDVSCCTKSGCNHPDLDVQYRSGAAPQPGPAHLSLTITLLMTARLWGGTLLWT

In the case of `N#Cc1cc(-c2ccccc2)n(Cc2nc3ccccc3[nH]2)c1N`, the Activity in the assay on MCF7 [1] turned out to be 5.7 ng/mL; in the assay on Raji [2], 18%; in the assay with MCF7 [3], 35%; with MCF7 [4], 65%; with A549 [5], 9.2 ng/mL; in the assay with A549 [6] it was 9.7 ng/mL. Moreover, the Activity with Raji [7] stood at 48.3%; with MCF7 [8], 2.8 ng/mL; in the assay with MCF7 [9], 50%; in the assay with MCF7 [11], 4 ng/mL; in the assay with Raji [13], 82%; with MCF7 [14], 75%. The Activity in the assay on MCF7 [15] turned out to be 7.4 ng/mL; in the assay on Raji [16], 100%; in the assay with A549 [17] it was 11.6 ng/mL; with A549 [18], 9.8 ng/mL. Besides, the IC50 with MCF7 [10] amounted to 0.515 µg/well; in the assay with A549 [19], 12000 nM. Besides, affinity in assay [12] was put at a Ki of 0.000589 nM.
As to `C=CCn1c(CN2C3=Nc4ccccc4C(=O)NC3=Nc3ccccc32)nc2ccccc21`, the Activity with Raji [2] amounted to 11.6%; in the assay on A549 [20] it was 3.8 ng/mL; with Raji [7] it was 45.8%; in the assay on A549 [21] it was 52%; in the assay with MCF7 [22], 4.4 ng/mL; with MCF7 [23] it was 39%. The Activity with A549 [24] amounted to 5.3 ng/mL; with A549 [25], 6.2 ng/mL; with MCF7 [26], 7.7 ng/mL; in the assay on MCF7 [27] it was 33%; in the assay with MCF7 [28] it was 23%; in the assay on A549 [29], 7.4 ng/mL. In addition, the Activity with A549 [30] amounted to 44%; with Raji [13], 77.9%; with MCF7 [31] it was 61%; in the assay with MCF7 [32], 7 ng/mL; with Raji [16], 100%; in the assay with A549 [33] it was 33%. Besides, the Activity stood at 8.8 ng/mL in the assay with MCF7 [34] and 65% with A549 [35]. Also, the IC50 in the assay with MCF7 [10] worked out at 0.667 µg/well; in the assay on A549 [19], 3400 nM. For the same compound, the Ki – broadly, a dissociation constant, usually derived from enzyme kinetics or from competition with a known ligand – in assay [12] came to 0.000288 nM.
